What follows are compounds tested against T1, ALK (baculovirus expressed human ALK kinase domain F1098-K1410) (Homo sapiens, UniProt Q9UM73) (assay: Luciferase-Coupled Chemiluminescent Kinase assay (LCCA), ALK biochemical activity). Settings: inhibition of ALK; mean values; 1 μM ATP, 4 μM poly-AEKY, 12 nM ALK, 2 hours ambient temperature.
T1 construct: baculovirus expressed human ALK kinase domain F1098-K1410; made in house
Method: ALK biochemical activity was assessed using a Luciferase-Coupled Chemiluminescent Kinase assay (LCCA) format in which kinase activity was measured as the percent ATP remaining following the kinase reaction. ATP remaining after the kinase reaction was detected by luciferase-luciferin-coupled chemiluminescence.
The reaction was initiated by mixing test compounds, 1 μM ATP, 4 μM poly-AEKY and 12 nM ALK (baculovirus expressed human ALK kinase domain F1098-K1410) in a 20 μL assay buffer ([…] pH 7.5, 10 mM MgCl2, 0.02% Triton X-100, 100 mM DTT, 2 mM MnCl2). The mixture was incubated at ambient temperature for 2 hours after which 20 μL luciferase-luciferin mix was added and the chemiluminescent signal read using a Wallac Victor^2 reader. The luciferase-luciferin mix consists of 50 mM HEPES, pH 7.8, 8.5 μg/mL oxalic acid (pH 7.8), 5 (or 50) mM DTT, 0.4% Triton X-100, 0.25 mg/mL coenzyme A, 63 μM AMP, 28 μg/mL luciferin and 40,000 units of light/mL luciferase.
Consumption of ATP by ALK can thus be quantified and utilized as a measure of inhibition of ALK activity by compounds described herein. By employing serial dilutions of compounds to be tested, the ability of test compounds to inhibit ALK activity can be determined.

T1 sequence (Q9UM73 1098-1410): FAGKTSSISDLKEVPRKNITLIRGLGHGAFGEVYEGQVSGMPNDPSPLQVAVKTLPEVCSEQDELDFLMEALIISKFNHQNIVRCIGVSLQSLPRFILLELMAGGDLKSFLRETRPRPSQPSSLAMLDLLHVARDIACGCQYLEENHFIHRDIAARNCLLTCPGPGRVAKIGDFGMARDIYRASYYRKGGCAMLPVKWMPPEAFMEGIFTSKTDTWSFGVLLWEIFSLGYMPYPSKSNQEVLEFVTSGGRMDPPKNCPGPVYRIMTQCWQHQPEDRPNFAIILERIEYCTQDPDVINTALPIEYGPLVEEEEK

| IC50 [µM] | Compound |
| --- | --- |
| 0.1 to 0.999 | COc1cc2c(c(-c3ccc(O)c(Cl)c3)nc3[nH]nc(C)c32)c(Cl)c1OC [Example 129, 2-chloro-4-[6-chloro-1-methyl-7,8-bis(methyloxy)-3H-pyrazolo[3,4-c]isoquinolin-5-yl]phenol] |
| 0.1 to 0.999 | COc1cc2c(-c3ccc(O)cc3)nc3[nH]nc(CN4CCCC4=O)c3c2cc1OC [Example 45, 1-{[5-(4-hydroxyphenyl)-7,8-bis(methyloxy)-3H-pyrazolo[3,4-c]isoquinolin-1-yl]methyl}pyrrolidin-2-one] |
| ≤ 0.099 | CCN1CCN(CCOc2cc3c(c(-c4ccc(O)c(Cl)c4)nc4[nH]nc(C)c43)c(F)c2OC)CC1 [Example 177, 2-chloro-4-[8-{[2-(4-ethylpiperazin-1-yl)ethyl]oxy}-6-fluoro-1-methyl-7-(methyloxy)-3H-pyrazolo[3,4-c]isoquinolin-5-yl]phenol] |
| ≤ 0.099 | Cc1n[nH]c2nc(-c3ccc(O)c(Cl)c3)c3cc4c(cc3c12)OCCCO4 [Example 141, 2-chloro-4-(1-methyl-9,10-dihydro-3H,8H-[1,4]dioxepino[2,3-g]pyrazolo[3,4-c]isoquinolin-5-yl)phenol] |
| ≤ 0.099 | COc1cc2c(cc1OC(F)F)c(-c1ccc(O)c(Cl)c1)nc1[nH]nc(C)c12 [Example 142, 2-chloro-4-[7-[(difluoromethyl)oxy]-1-methyl-8-(methyloxy)-3H-pyrazolo[3,4-c]isoquinolin-5-yl]phenol] |
| ≤ 0.099 | COc1c(C)cc2c(-c3ccc(O)cc3)nc3[nH]nc(C)c3c2c1Cl [Example 94, 4-[9-chloro-1,7-dimethyl-8-(methyloxy)-3H-pyrazolo[3,4-c]isoquinolin-5-yl]phenol] |
| ≤ 0.099 | COCCOc1cc(F)c2c(-c3ccc(O)c(Cl)c3)nc3[nH]nc(C)c3c2c1F [Example 127, 2-chloro-4-(6,9-difluoro-1-methyl-8-{[2-(methyloxy)ethyl]oxy}-3H-pyrazolo[3,4-c]isoquinolin-5-yl)phenol] |
| ≤ 0.099 | COc1cc2c(c(-c3ccc(O)c(Cl)c3)nc3[nH]nc(C)c32)c(OC)c1OC [Example 147, 2-chloro-4-[1-methyl-6,7,8-tris(methyloxy)-3H-pyrazolo[3,4-c]isoquinolin-5-yl]phenol] |
| ≤ 0.099 | COCCOc1cc(F)c2c(-c3cc(Br)c(O)cc3F)nc3[nH]nc(C)c3c2c1F [Example 148, 2-bromo-4-(6,9-difluoro-1-methyl-8-{[2-(methyloxy)ethyl]oxy}-3H-pyrazolo[3,4-c]isoquinolin-5-yl)-5-fluorophenol] |
| ≤ 0.099 | COCCOc1cc(F)c2c(-c3cc(Cl)c(O)cc3F)nc3[nH]nc(C)c3c2c1F [Example 144, 2-chloro-4-(6,9-difluoro-1-methyl-8-{[2-(methyloxy)ethyl]oxy}-3H-pyrazolo[3,4-c]isoquinolin-5-yl)-5-fluorophenol] |
| ≤ 0.099 | Cc1n[nH]c2nc(-c3ccc(O)c(Cl)c3)c3cc4c(cc3c12)OCO4 [Example 139, 2-chloro-4-(1-methyl-3H-[1,3]dioxolo[4,5-g]pyrazolo[3,4-c]isoquinolin-5-yl)phenol] |
| ≤ 0.099 | COc1c(OCCN(C)C2CCN(C)C2)cc(F)c2c(-c3ccc(O)c(Cl)c3)nc3[nH]nc(C)c3c12 (stereo not drawn) [Example 231, 2-chloro-4-[6-fluoro-1-methyl-8-({2-[methyl(1-methylpyrrolidin-3-yl)amino]ethyl}oxy)-9-(methyloxy)-3H-pyrazolo[3,4-c]isoquinolin-5-yl]phenol] |
| ≤ 0.099 | Cc1n[nH]c2nc(-c3ccc(O)cc3F)c3c(F)cc4c(c3c12)OCCO4 [Example 164, 3-fluoro-4-(6-fluoro-11-methyl-2,3-dihydro-9H-[1,4]dioxino[2,3-f]pyrazolo[3,4-c]isoquinolin-7-yl)phenol] |
| ≤ 0.099 | CCN(CCOc1cc(F)c2c(-c3ccc(O)c(Cl)c3)nc3[nH]nc(C)c3c2c1OC)CCN(C)C [Example 229, 2-chloro-4-[8-({2-[[2-(dimethylamino)ethyl](ethyl)amino]ethyl}oxy)-6-fluoro-1-methyl-9-(methyloxy)-3H-pyrazolo[3,4-c]isoquinolin-5-yl]phenol] |
| 1 to 2 | Cc1n[nH]c2nc(-c3ccc(N)cc3)c3c(F)cc(O)c(F)c3c12 [Example 193, 5-(4-aminophenyl)-6,9-difluoro-1-methyl-3H-pyrazolo[3,4-c]isoquinolin-8-ol] |
| 0.1 to 0.999 | CCOc1cc(-c2nc3[nH]nc(C)c3c3cc(OC)c(OC)cc23)ccc1O [Example 40, 2-(ethyloxy)-4-[1-methyl-7,8-bis(methyloxy)-3H-pyrazolo[3,4-c]isoquinolin-5-yl]phenol] |
| ≤ 0.099 | COCCOc1c(OC)ccc2c(-c3ccc(O)c(Br)c3)nc3[nH]nc(C)c3c12 [Example 113, 2-bromo-4-(1-methyl-8-(methyloxy)-9-{[2-(methyloxy)ethyl]oxy}-3H-pyrazolo[3,4-c]isoquinolin-5-yl)phenol] |

| IC50 [µM] | Compound |
| --- | --- |
| 0.1 to 0.999 | COCCOc1cc2c(-c3ccc(O)c(Br)c3)nc3[nH]nc(C)c3c2cc1OCCOC [Example 118, 2-bromo-4-(1-methyl-7,8-bis{[2-(methyloxy)ethyl]oxy}-3H-pyrazolo[3,4-c]isoquinolin-5-yl)phenol] |
| ≤ 0.099 | COCCOc1cc(F)c2c(-c3ccc(O)cc3)nc3[nH]nc(C)c3c2c1F [Example 120, 4-(6,9-difluoro-1-methyl-8-{[2-(methyloxy)ethyl]oxy}-3H-pyrazolo[3,4-c]isoquinolin-5-yl)phenol] |
| 0.1 to 0.999 | COc1ccc2c(-c3ccc(O)cc3)nc3[nH]nc(Cc4ccccc4)c3c2c1 [Example 26, 4-[8-(methyloxy)-1-(phenylmethyl)-3H-pyrazolo[3,4-c]isoquinolin-5-yl]phenol] |
| ≤ 0.099 | COc1ccc2c(-c3ccc(O)cc3)nc3[nH]nc(C)c3c2c1OC [Example 59, 4-[1-methyl-8,9-bis(methyloxy)-3H-pyrazolo[3,4-c]isoquinolin-5-yl]phenol] |
| ≤ 0.099 | Cc1n[nH]c2nc(-c3ccc(O)c(Cl)c3)c3c(F)cc(O)c(F)c3c12 [Example 155, 5-(3-chloro-4-hydroxyphenyl)-6,9-difluoro-1-methyl-3H-pyrazolo[3,4-c]isoquinolin-8-ol] |
| 0.1 to 0.999 | COc1cc(OC)c2c(-c3ccc(O)cc3)nc3[nH]ncc3c2c1 [Example 32, 4-[6,8-bis(methyloxy)-3H-pyrazolo[3,4-c]isoquinolin-5-yl]phenol] |
| ≤ 0.099 | COc1c(OCCN2CCN(C3CCCCC3)CC2)cc(F)c2c(-c3ccc(O)c(Cl)c3)nc3[nH]nc(C)c3c12 [Example 234, 2-chloro-4-[8-{[2-(4-cyclohexylpiperazin-1-yl)ethyl]oxy}-6-fluoro-1-methyl-9-(methyloxy)-3H-pyrazolo[3,4-c]isoquinolin-5-yl]phenol] |
| 0.1 to 0.999 | COc1c(Cl)cc2c(-c3ccc(O)cc3)nc3[nH]nc(C)c3c2c1F [Example 105, 4-[7-chloro-9-fluoro-1-methyl-8-(methyloxy)-3H-pyrazolo[3,4-c]isoquinolin-5-yl]phenol] |
| ≤ 0.099 | COc1c(OCCN2CCN(C)CC2)cc2c(c(-c3ccc(O)c(Cl)c3)nc3[nH]nc(C)c32)c1F [Example 194, 2-chloro-4-(6-fluoro-1-methyl-7-(methyloxy)-8-{[2-(4-methylpiperazin-1-yl)ethyl]oxy}-3H-pyrazolo[3,4-c]isoquinolin-5-yl)phenol] |
| 0.1 to 0.999 | COc1cc2c(-c3ccc(O)c(Cl)c3)nc3[nH]nc(C)c3c2cc1OCC(C)C [Example 134, 2-chloro-4-{1-methyl-7-(methyloxy)-8-[(2-methylpropyl)oxy]-3H-pyrazolo[3,4-c]isoquinolin-5-yl}phenol] |
| ≤ 0.099 | COc1ccc2c(-c3ccc(O)c(Br)c3)nc3[nH]nc(C)c3c2c1OCC1CCN(C)CC1 [Example 87, 2-bromo-4-(1-methyl-8-(methyloxy)-9-{[(1-methylpiperidin-4-yl)methyl]oxy}-3H-pyrazolo[3,4-c]isoquinolin-5-yl)phenol] |
| 0.1 to 0.999 | COc1cc2c(-c3ccc(O)c(F)c3)nc3[nH]nc(C)c3c2cc1OC [Example 42, 2-fluoro-4-[1-methyl-7,8-bis(methyloxy)-3H-pyrazolo[3,4-c]isoquinolin-5-yl]phenol] |
| ≤ 0.099 | CCN1CCN(CCCOc2cc(F)c3c(-c4ccc(O)c(Cl)c4)nc4[nH]nc(C)c4c3c2OC)CC1 [Example 200, 2-chloro-4-[8-{[3-(4-ethylpiperazin-1-yl)propyl]oxy}-6-fluoro-1-methyl-9-(methyloxy)-3H-pyrazolo[3,4-c]isoquinolin-5-yl]phenol] |
| ≤ 0.099 | COc1c(OC[C@H](N)C(C)C)cc(F)c2c(-c3ccc(O)c(Cl)c3)nc3[nH]nc(C)c3c12 [Example 208, 4-[8-{[(2R)-2-amino-3-methylbutyl]oxy}-6-fluoro-1-methyl-9-(methyloxy)-3H-pyrazolo[3,4-c]isoquinolin-5-yl]-2-chlorophenol] |
| ≤ 0.099 | Cc1n[nH]c2nc(-c3cnc(N)s3)c3c(F)cc(O)c(F)c3c12 [Example 195, 5-(2-amino-1,3-thiazol-5-yl)-6,9-difluoro-1-methyl-3H-pyrazolo[3,4-c]isoquinolin-8-ol] |
| ≤ 0.099 | Cc1n[nH]c2nc(-c3ccc(O)c(Cl)c3)c3c(F)cc(OC(F)F)c(F)c3c12 [Example 157, 2-chloro-4-{8-[(difluoromethyl)oxy]-6,9-difluoro-1-methyl-3H-pyrazolo[3,4-c]isoquinolin-5-yl}phenol] |

Source: patent US7872014B2, “Anaplastic lymphoma kinase modulators and methods of use” (Exelixis, Inc., priority 2003, dated 2011)
